Patent publication US20040120922A1, “Method for promoting bone formation” (Genzyme Corporation, priority 2002, published 2004)

What was measured:
Format in all cases: in vivo, human
hemodialysis patients [1] = test: Thoracic spine bone density by computerized tomography densitometry, baseline vs 24 month EBT scan (Extension study); conditions: two years, FIG. 1
From the text: Prior to the completion and analysis of this protocol, the study was extended for an additional two years. During this extension study, patients would remain on the phosphate binder to which they were originally randomized, sevelamer or calcium acetate/carbonate, and EBT scans would be performed at Month 24 and Month 36, to assess long-term changes in cardiovascular calcification. Forty-five patients in the US and 72 patients in the EU were eligible and consented to participate in the Extension study.
Having met the endpoints of the original study, the Extension study was prematurely discontinued. Only 77 Extension study patients opted to have a final EBT scan performed.
The study's EBT Core Lab evaluated the EBT images of patients who had both a baseline and 24 month scan to assess changes over time in trabecular and cortical bone density. Specifically, thoracic spine bone density was assessed by computerized tomography densitometry (density expressed as Hounsfield units). Trabecular bone density was measured in the core of the lowest vertebral body completely captured by the scanning procedure, while cortical bone density was measured in the axial plate of the same vertebral body. Care was taken to evaluate exactly the same vertebral level in consecutive scans in the same patient. […]

hemodialysis patients [2] = test: Biochemical markers after 12 months of treatment (Example 2); conditions: on average, one treatment group relative to the other
Protocol: Following the 12 months of treatment, the levels a number of biochemical markers were assayed in the patient groups. […] The group treated with sevelamer had on average higher iPTH, 1-84 PTH, alkaline phosphatase, bone specific alkaline phosphatase, osteocalcin, and HDL cholesterol. The sevelamer group had lower calcium, 25-hydroxyvitamin D, total cholesterol, LDL cholesterol, apolipoprotein B, […] and total CO2.

hemodialysis patients [3] = test: Biochemical marker studies, 52 week randomized study in hemodialysis patients; conditions: end of the chronic phase of the study
From the text: Protocols 1-7 for use of RenaGel® (Geltex Pharmaceuticals, Inc., Waltham, Mass.) in each of the haemodialysis patient studies are provided in the following references, respectively, the teachings of which are incorporated herein by reference in their entireties.
Chertow, G. M., Burke, S. K., Raggi, P., for the Treat to Goal Working Group, “Sevelamer attenuates the progression of coronary and aortic calcification in hemodialysis patients,” Kidney Int. 62: 245-252 (2002).
Osteocalcin and BSAP are measures of osteoblast function and are indicative of bone formation. […] There were no statistically significant differences between treatment groups in the mean change from Day 0 to Week 52 in c-telopeptides, a collagen fragment which indicates osteoclast function and bone resorption.
The study was a 52 week, randomized, open label, multi-center, parallel study designed to assess the effects of sevelamer compared to calcium acetate/carbonate in enabling hemodialysis patients to reach therapeutic goals of phosphorus <5 mg/dL, calcium <10.5 mg/dL and iPTH in the range of 150-300 pg/mL. Patients also underwent Electron Beam Tomography (EBT) scans at Day 0 and Weeks 26 and 52. These scans were used to assess changes in cardiovascular calcification over time. […]

hemodialysis patients [4] = test: Cardiovascular calcification by Electron Beam Tomography (Agatston score), 52 week study; conditions: Week 0 to 52
Protocol: The study was a 52 week, randomized, open label, multi-center, parallel study designed to assess the effects of sevelamer compared to calcium acetate/carbonate in enabling hemodialysis patients to reach therapeutic goals of phosphorus <5 mg/dL, calcium <10.5 mg/dL and iPTH in the range of 150-300 pg/mL. Patients also underwent Electron Beam Tomography (EBT) scans at Day 0 and Weeks 26 and 52. These scans were used to assess changes in cardiovascular calcification over time. A total of 202 patients who were on hemodialysis and taking one or more phosphate binders were randomized in a 1:1 design to receive either Renagel® or calcium acetate (United States)/carbonate (Europe), stratified by the presence or absence of diabetes.
Approximately 12 months into the Extension study, the analysis of the initial study was completed. […] This difference was statistically significant (p=0.0398). […] This difference was statistically significant (p=0.0104). When analyzed by percent change and weekly change, the results were consistently in favor of the sevelamer group. Complete results are described in the article referenced as Protocol 7 (Chertow, 2002).

hemodialysis patients [5] = test: Bone density, baseline vs 12 month scan (Example 2)
Protocol: […] Specifically, thoracic spine bone density was assessed by computerized tomography densitometry (density expressed as Hounsfield units). Trabecular bone density was measured in the core of the lowest vertebral body completely captured by the scanning procedure, while cortical bone density was measured in the axial plate of the same vertebral body. Care was taken to evaluate exactly the same vertebral level in consecutive scans in the same patient. No significant differences in demographics, baseline bone density or vascular calcification scores were observed between the sevelamer and calcium groups, with the exception of age, (sevelamer/Renagel group 53±12 yrs, calcium group 59±13 yrs, p=0.02).

[6] = 12 month treatment period, absolute and percentage change

## calcium acetate/carbonate
Hemodialysis patients [1]
  change in cortical bone density from baseline: non-significant decrease
  change in trabecular bone density from baseline: significant reduction
Hemodialysis patients [2]
  iPTH: significantly lower
Hemodialysis patients [3]; p<0.0001 between groups
  mean increase in BSAP (bone-specific alkaline phosphatase): 6.81 U/L
Hemodialysis patients [3]; p=0.0003 between groups
  mean increase in osteocalcin: 15.80 ng/mL
Hemodialysis patients [4]; p=0.0104 between groups
  median change in aortic calcification by Agatston score: 75.05
Hemodialysis patients [4]; p=0.0398 between groups
  median change in coronary artery calcification by Agatston score: 36.55
Hemodialysis patients [5]; [6]
  change in cortical bone density: trend to reduced
  change in trabecular bone density: significant reduction
Hemodialysis patients [5]; 52 weeks
  magnitude of trabecular bone density loss, mean: −5%
